# According to patent US20220387457A1 (Qlaris Bio, Inc., priority 2020, published 2022):
# Columns and labels:
# [1] = test system: African green monkeys (IOP); experiment: Effect of CKLP1 on IOP in African green monkeys; type: in vivo, African green monkey
# Method: (§1) To further validate the IOP lowering effects of CKLP1 in large animal models, one eye of five African green monkeys was treated with topical ocular administration of 10 mM CKLP1, while the contralateral eye received vehicle (PBS). Baseline IOP in control and treated eyes were 20.1±1.8 mmHg and 21.9±2.5 mmHg, respectively.
# (§2) For treatment days, 10 mM CKLP1 (dissolved in PBS) was added to one eye of each monkey in a 50 μl topical ocular administration, once daily, for 7 consecutive days, while the contralateral eye received a 50 μl ocular administration of vehicle (PBS).
# [2] = test system: hound dogs; experiment: Histology, blood chemistry and tolerability after bilateral topical CKLP1 in hound dogs
# Text: To evaluate local and systemic side effects of bilateral topical administration of CKLP1 to the eyes, additional tissue samples were harvested for histological examination. Tissues collected and fixed during necropsy were processed into paraffin blocks, sectioned, and stained with hematoxylin and eosin.
# [3] = test system: human alkaline phosphatase (ALP); experiment: Conversion of CKLP1 by human alkaline phosphatase, LC/MS-MS, pH 7.4; type: biochemical; conditions: up to 2 hours
# Method: (§3) Conversion of CKLP1 (200 μM-5.0 mM) was examined by LC/MS-MS following incubation at pH 7.4 with either human alkaline phosphatase (ALP), acid phosphatase, or 5′-nucleotidase (2.01 nM-1.0 μM) for up to 2 hours.
# [4] = target: T1, placenta-derived human alkaline phosphatase (Homo sapiens, UniProt P05187); experiment: Dose- and time-dependent conversion of CKLP1 to levcromakalim by placenta-derived human alkaline phosphatase, pH 10; type: biochemical
# T1 construct: varying concentrations of placenta-derived human alkaline phosphatase; from tissue; host or cells: human placenta
# T1 sequence (P05187 23-506): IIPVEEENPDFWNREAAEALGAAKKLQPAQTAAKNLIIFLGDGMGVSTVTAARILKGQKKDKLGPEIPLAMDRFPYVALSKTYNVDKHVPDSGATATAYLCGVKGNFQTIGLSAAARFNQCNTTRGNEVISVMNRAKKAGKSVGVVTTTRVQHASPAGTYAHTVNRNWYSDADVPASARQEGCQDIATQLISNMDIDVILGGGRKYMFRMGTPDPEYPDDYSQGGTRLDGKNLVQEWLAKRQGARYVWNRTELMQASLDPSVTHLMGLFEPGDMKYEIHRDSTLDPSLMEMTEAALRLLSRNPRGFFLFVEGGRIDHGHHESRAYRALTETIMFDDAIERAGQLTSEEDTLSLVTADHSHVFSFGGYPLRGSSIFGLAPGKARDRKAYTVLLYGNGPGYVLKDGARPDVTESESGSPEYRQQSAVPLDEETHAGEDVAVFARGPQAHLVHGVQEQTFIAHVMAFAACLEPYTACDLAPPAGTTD
# Method: To activate CKLP1, the phosphate is hydrolyzed from phosphatases to produce leveromakalim, the active moiety that can open (activate) ATP-sensitive potassium channels.
# In the first experiment, a fixed concentration of CKLP1 solution was incubated with varying concentrations of placenta-derived human alkaline phosphatase. To accomplish this, placenta-derived human alkaline phosphatase (0.0002 U) in a 100-μL volume was added to each of thirteen 1.5-mL tubes. To each tube, CKLP1 was then added at a fixed concentration [10 mM (0.4%)]. Tubes were inverted twice and incubated in a water bath at 37° C. At each of 13 different time points (0, 1, 2.5, 5, 15, and 30 minutes and at 1, 2, 4, 8, 24, 48, and 72 hours), a single tube was removed, and the reaction was stopped by the addition of 2 volumes (200 μL) of acetonitrile. Samples were stored at −80° C. The experiment was repeated with 10 mM CKLP1 (0.4%) in the presence of placenta-derived human alkaline phosphatase at concentrations of 0.002 U, 0.02 U, and 0.2 U. All assays were performed at pH 10.
# In a second experiment, a fixed concentration of placenta-derived human alkaline phosphatase was incubated with varying concentrations of CKLP1. To accomplish this, a fixed concentration of 0.02 U of placenta-derived human alkaline phosphatase in a 100-μL volume was added to each of thirteen 1.5-mL tubes. To each tube, CKLP1 was then added [0.01 mM (0.0004%)]. Tubes were inverted twice and incubated in a water bath at 37° C. At each of 13 different time points (0, 1, 2.5, 5, 15, and 30 minutes and at 1, 2, 4, 8, 24, 48, and 72 hours), a single tube was removed and the reaction was stopped by the addition of 2 volumes (200 μL) of acetonitrile. Samples were stored at −80° C. The experiment was repeated with the same concentration of placenta-derived human alkaline phosphatase (0.02 U) and various concentrations of CKLP1 [0.1 mM (0.004%), 1 mM (0.04%), 10 mM (0.4%), 20 mM (0.8%), and 40 mM (1.6%)]. All assays were performed at pH 10.
# [5] = test system: African green monkeys (systemic blood pressure); experiment: Systemic blood pressure in African green monkeys during 7-day topical CKLP1; type: in vivo, African green monkey; conditions: 10 mM CKLP1, 7 days
# Method: as §1, §2
# [6] = test system: Dutch-belted pigmented rabbits (IOP); conditions: previously reported; cited from earlier work
# [7] = test system: mice (IOP); conditions: previously reported; cited from earlier work
# [8] = test system: acid phosphatase; experiment: Conversion of CKLP1 by acid phosphatase, LC/MS-MS, pH 7.4; type: biochemical, human; conditions: up to 2 hours
# Method: as §3
# [9] = test system: α-SMA, CD31, endothelin-I, fibronectin, VE-cadherin, phospho-eNOS and total eNOS; experiment: Protein expression (western blot, immunocytochemistry) in 3D HTM/SC constructs; type: cell-based, human; conditions: levcromakalim 1, 10 or 100 μM; Y-27632 10 μM
# Method: Bioengineered 3D conventional outflow tract constructs using 4 donors (ages 47-91) were treated with […] (5 ng/mL) for 6 days. […] Protein expression of α-smooth muscle actin (α-SMA), CD31, endothelin-I, fibronectin, VE-cadherin, phospho-eNOS and total eNOS was analyzed via western blot. Cellular expression of α-SMA, fibronectin, phospho-eNOS and total eNOS was determined by immunocytochemistry and confocal microscopy. Statistical significance was determined by one-way ANOVA with a Tukey's multiple comparisons test, or by two-way ANOVA.
# [10] = 10 mM CKLP1 topical once daily, 7 days
smiles,measurement,setting,value
CC1(C)Oc2ccc(C#N)cc2[C@@H](N2CCCC2=O)[C@@H]1OP(=O)(O)O [CKLP1],IOP reduction compared to baseline,[1]; [10],3.8±1.8 mmHg
same,change in IOP,[1]; [10],16.7±6.7%
same,IOP lowered by (summary),[1]; African green monkeys,approximately 17%
same,"overall tolerability, ocular or systemic toxicity",[2]; bilateral eye treatment with CKLP1,well tolerated and did not result in any observed ocular or systemic toxicity
same,histology of 40 different tissues,"[2]; bilateral topical 10 mM CKLP1, 12-13 days",none of the analyzed tissues showed any significant pathology
same,blood chemistry,"[2]; bilateral topical 10 mM CKLP1, except albumin, slightly lower in treated and control",within normal range
same,rate constant for catalytic conversion (kcat),[3]; CKLP1 200 μM-5.0 mM,15 min⁻¹
same,Km,"[3]; CKLP1 200 μM-5.0 mM, read-out: Michaelis constant (Km)",630 µM
same,conversion of CKLP1 to levcromakalim,[3]; human ALP,converted
same,conversion rate of CKLP1 to levcromakalim at 24 hours,"[4]; ALP 0.02 U/100 μL, CKLP1 0.01 mM",26.9%
same,conversion rate of CKLP1 to levcromakalim at 24 hours,"[4]; ALP 0.02 U/100 μL, CKLP1 0.1 mM",20.0%
same,conversion rate of CKLP1 to levcromakalim at 24 hours,"[4]; ALP 0.02 U/100 μL, CKLP1 1 mM",5.2%
same,conversion rate of CKLP1 to levcromakalim at 24 hours,"[4]; ALP 0.02 U/100 μL, CKLP1 10 mM",4.9%
same,conversion rate of CKLP1 to levcromakalim at 24 hours,"[4]; ALP 0.02 U/100 μL, CKLP1 20 mM",3.2%
same,conversion rate of CKLP1 to levcromakalim at 24 hours,"[4]; ALP 0.02 U/100 μL, CKLP1 40 mM",1.7%
same,conversion rate of CKLP1 to levcromakalim at 24 hours,"[4]; CKLP1 10 mM, ALP 0.0002 U/100 μL",0.4%
same,conversion rate of CKLP1 to levcromakalim at 24 hours,"[4]; CKLP1 10 mM, ALP 0.002 U/100 μL",1.3%
same,conversion rate of CKLP1 to levcromakalim at 24 hours,"[4]; CKLP1 10 mM, ALP 0.02 U/100 μL",4.8%
same,conversion rate of CKLP1 to levcromakalim at 24 hours,"[4]; CKLP1 10 mM, ALP 0.2 U/100 μL",13.7%
same,"conversion of CKLP1 to levcromakalim, maximum","[4]; CKLP1 fixed 10 mM (0.4%), ALP 0.0002-0.2 U/100 μL, up to 72 hours, pH 10, 37° C.",≤ 21%
same,diastolic pressure following treatment,"[5]; baseline 68.1±6.0, p=0.13",76.0±8.2 mmHg
same,systolic pressure after treatment,"[5]; baseline 118.7±12.0, p=0.6",121.1±7.3 mmHg
same,IOP lowered by,[6],~16%
same,IOP lowered by,[7],approximately 17%
same,conversion of CKLP1 to levcromakalim,[8],not
"CC1(C)Oc2ccc(C#N)cc2[C@@H](N2CCCC2=O)[C@@H]1O [Levcromakalim, levcromakalim, reference compound]",expression of the cell adhesion proteins CD31 and VE-Cadherin,[9],did not significantly affect
